Data on 18 compounds can be found in patent publication US8557770B2, “Method of preventing or reducing scarring of human skin” (Pharmecosse Ltd., priority 2000, dated 2013).

Read-outs that look alike come from different tables or passages of the source.

For one assay, the target named is T1, PPARγ (Homo sapiens, UniProt P37231).
T1 sequence (P37231 1-505): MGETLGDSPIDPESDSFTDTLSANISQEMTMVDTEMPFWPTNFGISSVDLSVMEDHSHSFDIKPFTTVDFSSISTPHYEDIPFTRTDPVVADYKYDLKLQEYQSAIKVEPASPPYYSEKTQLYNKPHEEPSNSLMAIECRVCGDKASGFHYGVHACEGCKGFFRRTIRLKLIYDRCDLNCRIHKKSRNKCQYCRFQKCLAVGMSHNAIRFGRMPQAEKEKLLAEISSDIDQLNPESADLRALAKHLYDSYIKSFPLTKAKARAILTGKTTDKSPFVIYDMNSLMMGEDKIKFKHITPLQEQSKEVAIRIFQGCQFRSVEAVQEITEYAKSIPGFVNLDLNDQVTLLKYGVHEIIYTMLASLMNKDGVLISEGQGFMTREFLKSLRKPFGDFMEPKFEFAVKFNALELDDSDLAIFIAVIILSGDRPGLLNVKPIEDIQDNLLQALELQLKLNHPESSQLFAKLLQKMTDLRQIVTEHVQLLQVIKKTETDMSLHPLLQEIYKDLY
Conditions: read-out: Published C50, cited from earlier work.

Assay [1] deals with dermal fibroblast cell lines. Briefly: Myofibroblast number in dermal fibroblast cell lines in GFD medium with PPAR agonist. The assay is classed as cell-based, human. The settings on record: for Mean percentage reduction in myofibroblast number compared to GFD medium alone: 14 days. The source says:
Dermal fibroblast cell lines were derived from 3 patients and seeded individually onto sterile coverslips. […] Medium was refreshed twice weekly and cultures were harvested for immunohistochemical staining for α-smooth muscle actin after 14 days. The number of myofibroblasts was counted and calculated as a percentage of the total cells present, and since the ability of each cell line to differentiate into myofibroblasts varied extensively, the results were normalised as follows. Results are expressed as the mean percentage reduction in myofibroblast number for each treatment as compared to the proportion of myofibroblasts identified in GFD medium alone for that cell line. The error bars represent plus or minus one standard deviation.

The test system of assay [2] is fibroblast cultures from burns scars. Briefly: In vitro myofibroblast differentiation assay (α-smooth muscle actin staining), burns scar fibroblasts. The class given is cell-based, human. Conditions: 14 days. The text has this:
(§1) One of the most important cell types in both normal and pathological scar formation is the myofibroblast. These cells, which differentiate from the unwounded tissue cell type (fibroblasts), are responsible for laying down scar tissue. Indeed myofibroblasts remain present in hypertrophic scars up to four years after the original wounding event. An in vitro assay was accordingly developed to identify actives which prevent or reduce myofibroblast formation and thus identify actives which are effective in reducing and/or preventing scar tissue formation.
(§2) Fibroblast cultures were initiated from normal skin, normal scars, hypertrophic scars (HTS) and burns scars.
(§3) Each culture was split into seven parts (A to G) and grown in the following different growth media:
(§4) (A) was grown in normal growth medium (hereinafter referred to as NGM) which consisted of Dulbecco's modified Eagles Medium (DMEM) plus 10% Foetal Calf Serum (FCS);
(§5) (B) was grown in growth factor depleted medium (hereinafter referred to as GF depleted) which is NGM that is depleted of active polypeptide growth factors including TGFP. It is prepared by treating FCS with a reducing agent in order to attack and cleave the disulphide bonds that determine the conformation and thus the biological activity of the polypeptide growth factors;
(D) (D1-D4) were grown in growth factor depleted medium plus 1 ng/ml-100 ng/ml of insulin-like Growth Factor-I) (IGF-I) (hereinafter referred to as GF depleted+IGF-I); (E) (E1-E3) were grown in growth factor depleted medium plus 50 ng/ml-[…] of insulin-like Growth Factor II (IGF-II) (hereinafter referred to as GF depleted+IGFII); (F) (F1F3) were grown in growth factor depleted medium plus 25 ng/ml to 100 ng/ml of basic fibroblast growth factor (bFGF) (hereinafter referred to as GF depleted and bFGF);
(G) (G1-G3) were grown in growth factor depleted medium plus 25 ng/ml to 100 ng/ml of platelet derived growth factor (PDGF) (hereinafter referred to as GF depleted+PDGF).
The fibroblasts were grown in these media (which was replenished twice weekly) for fourteen days, fixed and stained immunohistochemically using an antibody specific for α-smooth muscle actin (a marker of myofibroblasts). The stain caused α-smooth muscle actin to fluoresce green and accordingly cells that had stained green were identified as myofibroblasts. The number of these was counted, as was the total number of cells present, and the proportion of myofibroblasts was then calculated. In this manner, the number of myofibroblasts present in each culture was determined as a percentage of the total number of cells in the culture population.

The subject of assay [3] is fibroblast cultures from normal scars. Briefly: In vitro myofibroblast differentiation assay (α-smooth muscle actin staining), normal scar fibroblasts. The class given is cell-based, human.
Text: as §1, §2, §3, §4, §5
(§6) (D) (D1-D4) were grown in growth factor depleted medium plus 1 ng/ml-100 ng/ml of insulin-like Growth Factor-I) (IGF-I) (hereinafter referred to as GF depleted+IGF-I); (E) (E1-E3) were grown in growth factor depleted medium plus 50 ng/ml-[…] of insulin-like Growth Factor II (IGF-II) (hereinafter referred to as GF depleted+IGFII); (F) (F1F3) were grown in growth factor depleted medium plus 25 ng/ml to 100 ng/ml of basic fibroblast growth factor (bFGF) (hereinafter referred to as GF depleted and bFGF); […]
(§7) The fibroblasts were grown in these media (which was replenished twice weekly) for fourteen days, fixed and stained immunohistochemically using an antibody specific for α-smooth muscle actin (a marker of myofibroblasts). […] The number of these was counted, as was the total number of cells present, and the proportion of myofibroblasts was then calculated. In this manner, the number of myofibroblasts present in each culture was determined as a percentage of the total number of cells in the culture population.
(§8) Fibroblast cultures were initiated from normal scars (NS) and hypertrophic scars (HTS). […] The number of myofibroblasts was calculated as a percentage of the total cell population and the results are shown in FIGS. 1 and 2 of the drawings.
(§9) Fibroblasts cultures were initiated from normal and hypertrophic scars. […] The number of myofibroblasts were counted and calculated as a percentage of the total cells present.

The test system of assay [4] is fibroblast cultures from hypertrophic scars (HTS). Briefly: In vitro myofibroblast differentiation assay (α-smooth muscle actin staining), hypertrophic scar fibroblasts. The class given is cell-based, human. The settings on record: hypertrophic scar fibroblasts.
Text: as §1, §2, §3, §4, §5, §6, §7, §8, §9

In another assay the test system is PPAR. Conditions: Table 3: other general PPAR agonists; read-out: Published C50; cited from earlier work.
Setting [5] is: Table 5: natural PPARγ agonists.
Where [6] appears, read: NGM plus 0.5 ng/ml TGFβ1, 5 days (FIG. 3).

As for `CCCCC/C=C\C/C=C\C/C=C\C/C=C\CCCC(=O)O` [Arachidonic acid], at PPARγ (setting [5]), the EC50 was roughly 20 µM.
Regarding `CCOC(=O)C(C)(C)Oc1ccc(Cl)cc1` [Clofibrate], the EC50 at PPARγ (Table 4: strong agonists for PPAR receptors other than PPARγ, weak action on PPARγ) was roughly 500 µM.
For `CCCCCC(O)C=CC=CCCCCCCCC(=O)O` (stereo not drawn) [13-HODE, 13-hydroxy-9,11-octadecadienoic acid], the EC50 on PPARγ (setting [5]) is roughly 20 µM.
As for `CCCCCC=CC=CC(O)CCCCCCCC(=O)O` (stereo not drawn) [9-HODE, 9-hydroxy-10,12-octadecadienoic acid], the EC50 on PPARγ (setting [5]) is roughly 20 µM.
On to `CC1(COc2ccc(CC3SC(=O)NC3=O)cc2)CCCCC1` (racemic) [Ciglitazone, (±)-5-[4-(1-methyl-cyclohexylmethoxy)-benzyl]-thiazolidine-2,4-dione], for which the “Mean percentage reduction in myofibroblast number compared to GFD medium alone” value in assay [1] (0.5×10^−7M) amounted to 79%; in assay [1] (10^−6M), 57%; in assay [1] (10^−7M), 53%.
Take bFGF: basic fibroblast growth factor: the “Number of myofibroblasts - percentage of total cell population” value in assay [2] (GF depleted medium + 25 ng/ml) is listed as 31.82 percentage of total cell popul; in assay [2] (GF depleted medium + 100 ng/ml), 34.21 percentage of total cell popul.
In the case of `CCCCC/C=C\C/C=C\CCCCCCCC(=O)O` [Linoleic acid], at PPARγ (setting [5]), the EC50 was roughly 20 µM.
“TGFβ1: transforming growth factor beta 1, inducer of myofibroblast differentiation”: the “Induction of myofibroblast differentiation” value in assay [3] (setting [6]) and in assay [4] (setting [6]) was “induces a rapid (within 5 days) induction of myofibroblast differentiation” throughout.
As to `CC(C)(Oc1ccc(CCNC(=O)c2ccc(Cl)cc2)cc1)C(=O)O` [Bezafibrate, 2-[4-[2-[(4-chlorobenzoyl)-amino]ethyl]phenoxy]-2-methyl propanoic acid], the EC50 in the assay on PPAR was 60 µM.
On to `O=C[C@@H](O)[C@@H](O)[C@H](O)[C@H](O)COP(=O)(O)O` [mannose-6-phosphate, reference compound], for which the “Induction of myofibroblast differentiation in GFD medium” value in assay [3] (GFD plus 100 μM or 10 μM M-6-P, 13 days (FIG. 1)) is on record as “inhibits the induction of myofibroblast differentiation”; in assay [4] (GFD plus 100 μM or 10 μM M-6-P, 13 days (FIG. 2)) it was “inhibits the induction of myofibroblast differentiation”.
Take `CCCc1c(OCCCOc2ccc(OCC(=O)O)cc2)ccc(C(C)=O)c1O` [L-165041]: the EC50 with PPAR was 5.5 µM.
For `CCCc1c(OCCCCc2nnn[nH]2)ccc(C(C)=O)c1O` [LY171883], the Numbers of myofibroblasts result in assay [1] (non-specific PPAR agonist) is “increase the numbers of myofibroblasts”.
`CCCCCC=CC=C1C(=O)C=C[C@@H]1CC=CCCCC(=O)O` [15-deoxy-Δ^12,14 prostaglandin J2]: the EC50 at PPARγ (setting [5]) was roughly 3 µM.
On to PDGF, for which the “Number of myofibroblasts - percentage of total cell population” value was 50.95 percentage of total cell popul in assay [2] (GF depleted medium + 25 ng/ml), 52.84 percentage of total cell popul in assay [2] (GF depleted medium + 50 ng/ml) and 53.35 percentage of total cell popul in assay [2] (GF depleted medium + 100 ng/ml).
`CCCCC[C@H](O)/C=C/C=C\C/C=C\C/C=C\CCCC(=O)O` [15-HETE, 15-hydroxy-eicosatetraenoic acid]: the EC50 at PPARγ (setting [5]) is roughly 10 µM.
Turning to IGF-I: insulin-like Growth Factor-I, the “Number of myofibroblasts - percentage of total cell population” value is given as 40.79 percentage of total cell popul in assay [2] (GF depleted medium + 1 ng/ml), 43.90 percentage of total cell popul in assay [2] (GF depleted medium + 10 ng/ml), 51.51 percentage of total cell popul in assay [2] (GF depleted medium + 50 ng/ml) and 47.00 percentage of total cell popul in assay [2] (GF depleted medium + 100 ng/ml).
Regarding `CC/C=C\C/C=C\C/C=C\C/C=C\C/C=C\CCCC(=O)O` [Eicosapentaenoic acid (EPA), Eicosapentaenoic acid], the EC50 at PPARγ (setting [5]) was roughly 20 µM.
For the compound IGF-II: insulin-like Growth Factor II, the “Number of myofibroblasts - percentage of total cell population” value is 37.93 percentage of total cell popul in assay [2] (GF depleted medium + 50 ng/ml), 40.26 percentage of total cell popul in assay [2] (GF depleted medium + 100 ng/ml) and 38.52 percentage of total cell popul in assay [2] (GF depleted medium + 200 ng/ml).
